Patent US7456133B2, “Substituted arylketones” (Bayer CropScience AG, priority 2001, dated 2008)

test system: not listed separately; experiment: Log P by reversed-phase HPLC (C 18), acidic range; format: physicochemical; conditions: Table 1, labelled a): acidic range, 0.1% aqueous phosphoric acid/acetonitrile gradient, 43° C.
Description: Log P values given in the tables were determined in accordance with EEC Directive 79/831 Annex V.A8 by HPLC (High Performance Liquid Chromatography) using a reversed-phase column (C 18). Temperature: 43° C. (a) Mobile phases for the determination in the acidic range: 0.1% aqueous phosphoric acid, acetonitrile; linear gradient from 10% acetonitrile to 90% acetonitrile—the corresponding measurement results in Tables 1 and 2 are labelled^a).

Which “log P” value does the source give for `CN(C)C(=O)N(C)Cc1c(Cl)ccc(C(=O)C2C(=O)CCCC2=O)c1Cl` [Example I-2-61] here?
The value was “log P = 2.26^a)”.

For `CN(C)C(=O)N(C)Cc1c(Cl)ccc(C(=O)c2cnn(C)c2O)c1Cl` [Example I-2-62], which “log P” value is on record?
Its value is “log P = 1.48^a)”.

For `CNC(=S)N(C)Cc1c(S(C)(=O)=O)ccc(C(=O)C2C(=O)CCCC2=O)c1Cl` [Example I-2-63], which “log P” value is on record?
Its value is “log P = 1.81^a)”.

Which “log P” value does the source give for `CNC(=S)N(C)Cc1c(S(C)(=O)=O)ccc(C(=O)c2cnn(C)c2O)c1Cl` [Example I-2-64] here?
Its value is “log P = 1.00^a)”.

Which “log P” value does the source give for `Cn1ncc(C(=O)c2ccc(S(C)(=O)=O)c(CNC(N)=O)c2Cl)c1O` [Example I-2-65] here?
Its value is “log P = 0.30^a)”.

Which “log P” value does the source give for `CCNC(=O)NCc1c(S(C)(=O)=O)ccc(C(=O)C2C(=O)CCCC2=O)c1Cl` [Example I-2-66] here?
Its value is “log P = 1.57^a)”.

Which “log P” value does the source give for `O=C(NCCOc1c(Cl)ccc(C(=O)C2C(=O)CCCC2=O)c1Cl)C1CC1` [Example I-2-68] here?
Its value is “log P = 2.28^a)”.

For `CC(C)OC(=O)NCCOc1c(Cl)ccc(C(=O)C2C(=O)CCCC2=O)c1Cl` [Example I-2-69], which “log P” value is on record?
The value was “log P = 2.98^a)”.

For `CNC(=O)NCCOc1c(Cl)ccc(C(=O)C2C(=O)CCCC2=O)c1Cl` [Example I-2-73], which “log P” value is on record?
The value was “log P = 1.84^a)”.

With `CNC(=S)NCCOc1c(Cl)ccc(C(=O)C2C(=O)CCCC2=O)c1Cl` [Example I-2-75] as the molecule, how does the “log P” value read?
Its value is “log P = 2.23^a)”.

For `Cc1ccccc1NC(=O)NCc1c(S(C)(=O)=O)ccc(C(=O)c2cnn(C)c2O)c1Cl` [Example I-2-81], which “log P” value is on record?
The value was “log P = 1.58^a)”.

Which “log P” value does the source give for `CN(C)C(=O)NCc1c(S(C)(=O)=O)ccc(C(=O)C2C(=O)CCCC2=O)c1Cl` [Example I-2-82] here?
Its value is “log P = 1.58^a)”.

Which “log P” value does the source give for `CN(C)C(=O)NCc1c(S(C)(=O)=O)ccc(C(=O)c2cnn(C)c2O)c1Cl` [Example I-2-83] here?
Its value is “log P = 0.77^a)”.

Which “log P” value does the source give for `Cn1ncc(C(=O)c2ccc(Cl)c(OCCNC(N)=O)c2Cl)c1O` [Example I-2-118] here?
Its value is “log P = 1.66^a)”.

With `Cn1ncc(C(=O)c2ccc(Cl)c(OCCNC(N)=O)c2Cl)c1O` [Example I-2-119] as the molecule, how does the “log P” value read?
The value was “log P = 1.22^a)”.

For `Cc1ccccc1NC(=O)NCc1c(S(C)(=O)=O)ccc(C(=O)C2C(=O)CCCC2=O)c1Cl` [Example I-2-140], which “log P” value is on record?
Its value is “log P = 2.35^a)”.

same assay, conditions: reversed-phase HPLC (C 18), acidic range: 0.1% aqueous phosphoric acid, acetonitrile; 43° C.; labelled a)

Which “log P” value does the source give for `CC(C)NC(=O)N(Cc1ccc(C(=O)C2C(=O)CCCC2=O)c([N+](=O)[O-])c1)C(C)C` [Example I-3-5] here?
Its value is “log P = 2.53^a)”.

Which “log P” value does the source give for `CC(C)NC(=O)N(Cc1ccc(C(=O)c2cnn(C)c2O)c([N+](=O)[O-])c1)C(C)C` [Example I-3-6] here?
Its value is “log P = 1.64^a)”.

For `CC(C)N(Cc1ccc(C(=O)c2cnn(C)c2O)c([N+](=O)[O-])c1)C(=O)N(C)C` [Example I-3-7], which “log P” value is on record?
Its value is “log P = 1.63^a)”.

With `CCNC(=O)N(Cc1ccc(C(=O)C2C(=O)CCCC2=O)c([N+](=O)[O-])c1)c1ccccc1` [Example I-3-8] as the molecule, how does the “log P” value read?
The value was “log P = 2.60^a)”.

With `CCNC(=O)N(Cc1ccc(C(=O)c2cnn(C)c2O)c([N+](=O)[O-])c1)c1ccccc1` [Example I-3-9] as the molecule, how does the “log P” value read?
Its value is “log P = 1.75^a)”.

With `CC(C)NC(=O)N(Cc1ccc(C(=O)C2C(=O)CCCC2=O)c([N+](=O)[O-])c1)c1ccccc1` [Example I-3-10] as the molecule, how does the “log P” value read?
The value was “log P = 2.94^a)”.

With `CC(C)NC(=O)N(Cc1ccc(C(=O)c2cnn(C)c2O)c([N+](=O)[O-])c1)c1ccccc1` [Example I-3-11] as the molecule, how does the “log P” value read?
Its value is “log P = 2.05^a)”.

Which “log P” value does the source give for `CNC(=O)N(C)Cc1ccc(C(=O)c2cnn(C)c2O)c([N+](=O)[O-])c1` [Example I-3-25] here?
The value was “log P = 0.68^a)”.

Which “log P” value does the source give for `CC(C)N(Cc1ccc(C(=O)C2C(=O)CCCC2=O)c([N+](=O)[O-])c1)C(=O)Oc1ccccc1` [Example I-3-39] here?
Its value is “log P = 3.53^a)”.

Which “log P” value does the source give for `CC(C)N(Cc1ccc(C(=O)c2cnn(C)c2O)c([N+](=O)[O-])c1)C(=O)Oc1ccccc1` [Example I-3-40] here?
The value was “log P = 2.59^a)”.

Which “log P” value does the source give for `CCOC(=O)N(Cc1ccc(C(=O)C2C(=O)CCCC2=O)c([N+](=O)[O-])c1)C(C)C` [Example I-3-41] here?
Its value is “log P = 3.04^a)”.

For `CCOC(=O)N(Cc1ccc(C(=O)c2cnn(C)c2O)c([N+](=O)[O-])c1)C(C)C` [Example I-3-42], which “log P” value is on record?
Its value is “log P = 2.06^a)”.

same assay, conditions: reversed-phase HPLC column (C 18); given in the preparation examples, acidic or neutral range not given

With `CCn1ncc(C(=O)c2ccc(Cl)c(OCCNC(C)=O)c2Cl)c1O` [Example I-2-1, N-(2-{2,6-dichloro-3-[(1-ethyl-5-hydroxy-1H-pyrazol-4-yl)-carbonyl]-phenoxy}-ethyl)-acetamide] as the molecule, how does the chromatographic logP read?
The chromatographic logP was 1.41.

For `CC(C)NC(=S)NCc1c(Cl)ccc(C(=O)C2=C(O)CCCC2=O)c1Cl` [Example I-2-3], which chromatographic logP is on record?
The chromatographic logP was 2.74.

For `CCn1ncc(C(=O)c2ccc(Cl)c(OCCNC(C)=O)c2Cl)c1OCc1ccc(Br)cc1` [Example I-2-4, N-{2-[3-({5-[(4-bromo-benzyl)-oxy]-1-ethyl-1H-pyrazol-4-yl}-carbonyl)-2,6-dichloro-phenoxy]-ethyl}-acetamide], which chromatographic logP is on record?
The chromatographic logP was 2.06.

Which chromatographic logP does the source give for `CCn1ncc(C(=O)c2ccc(Cl)c(OCCN)c2Cl)c1O` [II-1, [3-(2-amino-ethoxy)-2,4-dichloro-phenyl]-(1-ethyl-5-hydroxy-1H-pyrazol-4-yl)-methanone] here?
The chromatographic logP was 0.72.

For `CCn1ncc(C(=O)c2ccc(Cl)c(OCCCl)c2Cl)c1O` [[2,4-dichloro-3-(2-chloro-ethoxy)-phenyl]-(1-ethyl-5-hydroxy-1H-pyrazol-4-yl)-methanone], which chromatographic logP is on record?
The chromatographic logP was 2.73.

Which chromatographic logP does the source give for `CCOC(=O)c1ccc(Cl)c(OCCCl)c1Cl` [ethyl 2,4-dichloro-3-(2-chloro-ethoxy)-benzoate] here?
Its chromatographic logP is 3.76.

test system: weeds; experiment: Pre-emergence test, damage to weeds; format: in vivo; conditions: soil sprayed 24 hours after sowing, rated after three weeks
Description: Solvent: 5 parts by weight of acetone
(§1) Emulsifier: 1 part by weight of alkylaryl polyglycol ether
(§2) To produce a suitable preparation of active compound, 1 part by weight of active compound is mixed with the stated amount of solvent, the stated amount of emulsifier is added and the concentrate is diluted with water to the desired concentration.
Seeds of the test plants are sown in normal soil. After 24 hours, the soil is sprayed with the preparation of active compound such that the particular amount of active compound desired is applied per unit area. The concentration of active compound in the spray liquor is chosen such that the particular amount of active compound desired is applied in 1000 litres of water per hectare.
(§3) After three weeks, the degree of damage to the plants is rated in % damage in comparison to the development of the untreated control. The figures denote: • 0%=no effect (like untreated control) • 100%=total destruction

With `CCn1ncc(C(=O)c2ccc(Cl)c(OCCNC(C)=O)c2Cl)c1O` [Example I-2-1, N-(2-{2,6-dichloro-3-[(1-ethyl-5-hydroxy-1H-pyrazol-4-yl)-carbonyl]-phenoxy}-ethyl)-acetamide] as the molecule, how does the activity against weeds read?
Its activity against weeds is “strong activity”.

Which activity against weeds does the source give for `CC(C)NC(=S)NCc1c(Cl)ccc(C(=O)C2=C(O)CCCC2=O)c1Cl` [Example I-2-3] here?
Its activity against weeds is “strong activity”.

test system: weeds; experiment: Post-emergence test, damage to weeds; format: in vivo; conditions: test plants of 5-15 cm sprayed, rated after three weeks
Description: Solvent: 5 part by weight of acetone
as §1, §2
Test plants of a height of 5-15 cm are sprayed with the preparation of active compound such that the particular amounts of active compound desired are applied per unit area. The concentration of the spray liquor is chosen such that the particular amounts of active compound desired are applied in 1000 l of water/ha.
as §3

Which activity against weeds does the source give for `CCn1ncc(C(=O)c2ccc(Cl)c(OCCNC(C)=O)c2Cl)c1O` [Example I-2-1, N-(2-{2,6-dichloro-3-[(1-ethyl-5-hydroxy-1H-pyrazol-4-yl)-carbonyl]-phenoxy}-ethyl)-acetamide] here?
The activity against weeds was “strong activity”.

For `CC(C)NC(=S)NCc1c(Cl)ccc(C(=O)C2=C(O)CCCC2=O)c1Cl` [Example I-2-3], which activity against weeds is on record?
The activity against weeds was “strong activity”.

For `CCn1ncc(C(=O)c2ccc(Cl)c(OCCNC(C)=O)c2Cl)c1OCc1ccc(Br)cc1` [Example I-2-4, N-{2-[3-({5-[(4-bromo-benzyl)-oxy]-1-ethyl-1H-pyrazol-4-yl}-carbonyl)-2,6-dichloro-phenoxy]-ethyl}-acetamide], which activity against weeds is on record?
Its activity against weeds is “strong activity”.
